Legend:
[1] = test system: rabbit pupil; assay: Miosis effect of 0.915% compound solutions in rabbits (Test Example 4); type: in vivo; conditions: at half of the concentration of the pilocarpine hydrochloride
Method: Each rabbit in each group was subjected to single eye drop administration in the left eye, with an administration volume of 100 μL. The pupil and iris diameters of the left eye of the rabbits were measured at time points of −0.5 h (i.e., half an hour before administration), 0.5 h, 3 h, and 4 h relative to administration (observation time points were extended if necessary), with the measurement performed 5 times for each rabbit at each time point. The entire measurement process was completed by the same person.
• Reagents: normal saline (specification: 500 mL: 4.5 g), purchased from Jiangxi Kelun Pharmaceutical Co., Ltd.; • compound 1 and compound 2 (from Nanjing Jiqun Pharmaceutical Technology Co., Ltd.); • 1) a compound 1 solution at a concentration of 0.915% prepared using normal saline; • 2) a compound 2 solution at a concentration of 0.915% prepared using normal saline.
The miosis effects of the 0.915% compound 1 solution and the 0.915% compound 2 solution were determined using the method in Test Example 2, and the determination results are shown in Tables 4-1 and 4-2 below.

[2] = Stability tests on compound starting materials (HPLC related substances); type: physicochemical; conditions: for (Z-A) impurity A isopilocarpine / (Z-B) impurity B pilocarpic acid / (Z-C) impurity C isopilocarpic acid / Maximum single impurity / Total impurity: starting material
Method: Samples: compound 1, compound 2 and pilocarpine hydrochloride starting material solid particles.
High-temperature test: 1 g of each of compound 1, compound 2 and pilocarpine hydrochloride starting materials were taken and placed in an open container inside a constant temperature device at 40° C.; samples were taken at time points of day 0 and day 5, and then tested according to the key stability examination items. The stability of the active pharmaceutical ingredient itself and the trend of changes in stability under the conditions of influencing factor tests were observed.
Strong light irradiation test: 1 g of each of compound 1, compound 2 and pilocarpine hydrochloride starting materials were taken and placed in an open container inside a light irradiation box, with the illumination set at 4500 lx±500 lx; samples were taken at time points of day 0 and day 5, and then tested according to the key stability examination items.
High-humidity test: 1 g of each of compound 1, compound 2 and pilocarpine hydrochloride starting materials was taken and placed in an open container inside a constant humidity closed container at 25° C. and with a relative humidity of 75%±5%; samples were taken at day 0 and day 5, and then tested according to the requirements of the key stability examination items.
According to the records in the European Pharmacopoeia (EP), the key related substances to be examined for pilocarpine include: impurity A isopilocarpine (Z-A), impurity B pilocarpic acid (Z-B), and impurity C isopilocarpic acid (Z-C). The samples taken at different time points from the above high-temperature test, strong light irradiation test and high-humidity test were separately tested using high-performance liquid chromatography to observe the trend of changes in stability under the conditions of the influencing factor tests.
The related substances were determined according to the high-performance liquid chromatography (General Chapter 0512, Chinese Pharmacopoeia, Volume IV, 2020 Edition).
Test sample solution: an appropriate amount of each test sample was precisely weighed, dissolved in water, and diluted to prepare a solution containing 1 mg of test sample per 1 mL.
Chromatographic conditions: octadecyl bonded silica gel was used as a filler [kromasil 100-5-C18 column (4.0 mm×[…]) or a chromatographic column with equivalent performance], 0.679 g/L tetrabutylammonium dihydrogen phosphate-methanol-acetonitrile (885:55:60) (adjusted to pH 7.7 with dilute aqueous ammonia) was used as mobile phase A, and acetonitrile-water (80:20) was used as mobile phase B; gradient elution was performed according to Table 6-1, with a column temperature of 30° C., a flow rate of 1.0 mL/min, a detection wavelength of 220 nm, and a sample injection volume of 20 μL.

[3] = Determination of salt-forming ratios of pilocarpine salt formulations (HPLC); type: physicochemical
Method: The determination of the salt-forming ratios of the pilocarpine salt formulations was performed using high-performance liquid chromatography with the following conditions: chromatographic column: C18 column; sample injection volume: 10 μL; mobile phase: K2HPO4 (adjusted to pH 6.50±0.1 with phosphoric acid)-methanol-acetonitrile (63:2:35); flow rate: 0.7 mL/min; column temperature: 30° C.; detection wavelength: 215 nm; […] determination was performed, and the salt-forming ratios were calculated according to the peak areas of free acid radicals and pilocarpine.
(§1) The samples were separately injected to determine the salt-forming ratios of different compound 1 formulations. Meanwhile, the salt-forming ratios of the compound 1 formulation solutions with different pH values under different conditions were determined using the above stability examination methods.
as §1, with “2” for “1”

(Z-A) impurity A isopilocarpine ([2]; 40° C.-5 days): 0.365% | (Z-B) impurity B pilocarpic acid ([2]; 40° C.-5 days): 0% | (Z-C) impurity C isopilocarpic acid ([2]; 40° C.-5 days): 0% | Maximum single impurity ([2]; 40° C.-5 days): 0% | Total impurity ([2]; 40° C.-5 days): 0.365% | (Z-A) impurity A isopilocarpine ([2]; Day 0): 0.328% | (Z-B) impurity B pilocarpic acid ([2]; Day 0): 0% | (Z-C) impurity C isopilocarpic acid ([2]; Day 0): 0% | Maximum single impurity ([2]; Day 0): 0% | Total impurity ([2]; Day 0): 0.328% | (Z-A) impurity A isopilocarpine ([2]; Light-5 days (4500 lx)): 0.329% | (Z-B) impurity B pilocarpic acid ([2]; Light-5 days (4500 lx)): 0% | (Z-C) impurity C isopilocarpic acid ([2]; Light-5 days (4500 lx)): 0% | Maximum single impurity ([2]; Light-5 days (4500 lx)): 0% | Total impurity ([2]; Light-5 days (4500 lx)): 0.329% | (Z-A) impurity A isopilocarpine ([2]; RH 75%-5 days, 25° C.): 0.310% | (Z-B) impurity B pilocarpic acid ([2]; RH 75%-5 days, 25° C.): 0% | (Z-C) impurity C isopilocarpic acid ([2]; RH 75%-5 days, 25° C.): 0% | Maximum single impurity ([2]; RH 75%-5 days, 25° C.): 0% | Total impurity ([2]; RH 75%-5 days, 25° C.): 0.331% | salt-forming ratios of the formulations ([3]; different conditions): substantially stable | Salt-forming ratio ([3]; formulation pH 3.6, 0 d): 1.19 | Salt-forming ratio ([3]; formulation pH 3.6, 40° C./5 d): 1.08 | Salt-forming ratio ([3]; formulation pH 3.6, 40° C./10 d): 1.09 | Salt-forming ratio ([3]; formulation pH 3.6, 60° C./5 d): 1.15 | Salt-forming ratio ([3]; formulation pH 3.6, 60° C./10 d): 1.24 | Salt-forming ratio ([3]; formulation pH 3.6, Light irradiation/5 d): 1.06 | Salt-forming ratio ([3]; formulation pH 3.6, Light irradiation/10 d): 1.06 | Salt-forming ratio ([3]; formulation pH 4.1, 0 d): 1.03 | Salt-forming ratio ([3]; formulation pH 4.1, 40° C./5 d): 1.06 | Salt-forming ratio ([3]; formulation pH 4.1, 40° C./10 d): 1.06 | Salt-forming ratio ([3]; formulation pH 4.1, 60° C./5 d): 1.09 | Salt-forming ratio ([3]; formulation pH 4.1, 60° C./10 d): 1.10 | Salt-forming ratio ([3]; formulation pH 4.1, Light irradiation/5 d): 1.04 | Salt-forming ratio ([3]; formulation pH 4.1, Light irradiation/10 d): 1.04 | Salt-forming ratio ([3]; formulation pH 4.7, 0 d): 1.03 | Salt-forming ratio ([3]; formulation pH 4.7, 40° C./5 d): 1.04 | Salt-forming ratio ([3]; formulation pH 4.7, 40° C./10 d): 1.02 | Salt-forming ratio ([3]; formulation pH 4.7, 60° C./5 d): 1.02 | Salt-forming ratio ([3]; formulation pH 4.7, 60° C./10 d): 1.00 | Salt-forming ratio ([3]; formulation pH 4.7, Light irradiation/5 d): 1.03 | Salt-forming ratio ([3]; formulation pH 4.7, Light irradiation/10 d): 1.03 | Salt-forming ratio ([3]; formulation pH 4.8, 0 d): 1.02 | Salt-forming ratio ([3]; formulation pH 4.8, 40° C./5 d): 1.04 | Salt-forming ratio ([3]; formulation pH 4.8, 40° C./10 d): 1.02 | Salt-forming ratio ([3]; formulation pH 4.8, 60° C./5 d): 0.99 | Salt-forming ratio ([3]; formulation pH 4.8, 60° C./10 d): 0.97 | Salt-forming ratio ([3]; formulation pH 4.8, Light irradiation/5 d): 1.03 | Salt-forming ratio ([3]; formulation pH 4.8, Light irradiation/10 d): 1.02 | Salt-forming ratio ([3]; formulation pH 5.1, 0 d): 1.02 | Salt-forming ratio ([3]; formulation pH 5.1, 40° C./5 d): 1.03 | Salt-forming ratio ([3]; formulation pH 5.1, 40° C./10 d): 1.01 | Salt-forming ratio ([3]; formulation pH 5.1, 60° C./5 d): 0.97 | Salt-forming ratio ([3]; formulation pH 5.1, 60° C./10 d): 0.92 | Salt-forming ratio ([3]; formulation pH 5.1, Light irradiation/5 d): 1.03 | Salt-forming ratio ([3]; formulation pH 5.1, Light irradiation/10 d): 1.02 | Salt-forming ratio ([3]; formulation pH 5.6, 0 d): 1.02 | Salt-forming ratio ([3]; formulation pH 5.6, 40° C./5 d): 1.01 | Salt-forming ratio ([3]; formulation pH 5.6, 40° C./10 d): 0.98 | Salt-forming ratio ([3]; formulation pH 5.6, 60° C./5 d): 0.91 | Salt-forming ratio ([3]; formulation pH 5.6, 60° C./10 d): 0.85 | Salt-forming ratio ([3]; formulation pH 5.6, Light irradiation/5 d): 1.02 | Salt-forming ratio ([3]; formulation pH 5.6, Light irradiation/10 d): 1.01
SMILES: CC[C@@H]1C(=O)OC[C@@H]1Cc1cncn1C [Compound 1]
miosis effect compared to pilocarpine hydrochloride [1]: comparable to the effect of pilocarpine hydrochloride | impurity increasing rate compared to pilocarpine hydrochloride starting material ([2]; 40° C. and high light irradiation): comparable to those of the pilocarpine hydrochloride starting material | impurity increasing rate compared to pilocarpine hydrochloride starting material ([2]; 5 days, high humidity (RH 75%)): significantly slower than those of the pilocarpine hydrochloride

Reference: patent US20250154135A1, “M-CHOLINE RECEPTOR AGONIST COMPOUND, PREPARATION METHOD THEREFOR AND USE THEREOF” (NANJING GRITPHARMA CO., LTD., priority 2022, published 2025)
